Tested on: c-myc in 22RV-1 cells
Test: Human c-myc ELISA assay
Format: cell-based
Settings: Homo sapiens; for Emax: 22Rv1, 18 h, read-out: Degradation of BRD4: Maximum inhibition (%) c-Myc ELISA in 22RV1 cells; for DC50: 22Rv1, read-out: Degradation of BRD4: DC50 (uM) c-Myc ELISA in 22RV1 cells
In short: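 c-myc levels measured by ELISA in RIPA lysates of 22RV-1 cells, calibrated with a 333-0 pg/ml standard curve. Lysates came from cells exposed for 18 h to an 8-point, 1:3 dose series starting at 300 nM or 1 μM final in 0.1% DMSO. Suppression potency given as DC50.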

Structure (SMILES) | DC50 [µM] | Emax [%]
Cc1ncsc1-c1ccc([C@H](C)NC(=O)[C@@H]2C[C@@H](O)CN2C(=O)[C@@H](NC(=O)CCc2cc(F)cc(O[C@H]3C[C@H](NC(=O)C[C@@H]4N=C(c5ccc(Cl)cc5)c5c(sc(C)c5C)-n5c(C)nnc54)C3)c2)C(C)(C)C)cc1 [Example 173, (2S,4R)-1-[(2S)-2-(3-{3-fluoro-5-[(1,3-trans)-3-{2-[(9S)-7-(4-chlorophenyl)-4,5,13-trimethyl-3-thia-1,8,11,12-tetraazatricyclo[8.3.0.0^2,^6]trideca-2(6),4,7,10,12-pentaen-9-yl]acetamido}cyclobutoxy]phenyl}propanamido)-3,3-dimethylbutanoyl]-4-hydroxy-N-[(1S)-1-[4-(4-methyl-1,3-thiazol-5-yl)phenyl]ethyl]pyrrolidine-2-carboxamide] | < 0.01 | 98
Cc1ncsc1-c1ccc(CNC(=O)[C@@H]2C[C@@H](O)CN2C(=O)[C@@H](NC(=O)COCCCOCCCNC(=O)C[C@@H]2N=C(c3ccc(Cl)cc3)c3c(sc(C)c3C)-n3c(C)nnc32)C(C)(C)C)cc1 [Example 46] | 0.01 to 0.1 | 100
Cc1ncsc1-c1ccc(CNC(=O)[C@@H]2C[C@@H](O)CN2C(=O)[C@@H](NC(=O)CCCCCCCCNC(=O)C[C@@H]2N=C(c3ccc(Cl)cc3)c3c(sc(C)c3C)-n3c(C)nnc32)C(C)(C)C)cc1 [Example 68] | 0.01 to 0.1 | 95.4
Cc1sc2c(c1C)C(c1ccc(Cl)cc1)=N[C@@H](CC(=O)N[C@H]1C[C@@H](Oc3cccc(-c4cnn([C@@H](C(=O)N5C[C@H](O)C[C@H]5C(=O)N[C@@H](C)c5ccc(-c6nccn6C)cc5)C(C)C)c4)c3)C1)c1nnc(C)n1-2 [Example 290] | > 1 | 15.5
Cc1ncsc1-c1ccc(CNC(=O)[C@@H]2C[C@@H](O)CN2C(=O)[C@@H](NC(=O)COCCCOc2ccc(-c3ccc(NC(=O)C[C@@H]4N=C(c5ccc(Cl)cc5)c5c(sc(C)c5C)-n5c(C)nnc54)cn3)cc2F)C(C)(C)C)cc1 [Example 23] | 0.01 to 0.1 | 91
Cc1ncsc1-c1ccc(CNC(=O)[C@@H]2C[C@@H](O)CN2C(=O)[C@H](C(C)C)n2cc(-c3ccnc(O[C@H]4C[C@H](NC(=O)C[C@@H]5N=C(c6ccc(Cl)cc6)c6c(sc(C)c6C)-n6c(C)nnc65)C4)c3)cn2)cc1 [Example 226] | 0.01 to 0.1 | 99
Cc1ncsc1-c1ccc(CNC(=O)C2C[C@@H](O)CN2C(=O)[C@@H](NC(=O)c2cn3cc(OCCNC(=O)C[C@@H]4N=C(c5ccc(Cl)cc5)c5c(sc(C)c5C)-n5c(C)nnc54)ccc3n2)C(C)(C)C)cc1 (stereo partly shown) [Example 96] | 0.1 to 1 | 67.9
Cc1ncsc1-c1ccc(CNC(=O)[C@@H]2C[C@@H](O)CN2C(=O)[C@@H](NC(=O)COCCOCCOCCOCCNC(=O)C[C@@H]2N=C(c3ccc(Cl)cc3)c3c(sc(C)c3C)-n3c(C)nnc32)C(C)(C)C)cc1 [Example 38] | 0.01 to 0.1 | 94
Cc1ncsc1-c1ccc(CNC(=O)C2C[C@@H](O)CN2C(=O)[C@@H](NC(=O)COCCOCCOCCOCCOc2ccc3c(c2)c2c(C(N)=O)cc(-c4c(C)noc4C)cc2n3Cc2ccccc2)C(C)(C)C)cc1 (stereo partly shown) [Example 89, 9-Benzyl-2-(dimethyl-1,2-oxazol-4-yl)-6{[1-({1-[4-hydroxy-2-({[4-(4-methyl-1,3-thiazol-5-yl)phenyl]methyl}carbamoyl)pyrrolidin-1-yl]-3,3-dimethyl-1-oxobutan-2-yl}carbamoyl)-2,5,8,11-tetraoxatridecan-13-yl]oxy}-9H-carbazole-4-carboxamide] | 0.01 to 0.1 | 99.5
Cc1ncsc1-c1ccc(CNC(=O)[C@@H]2C[C@@H](O)CN2C(=O)[C@H](c2cc(OCCCCCNC(=O)C[C@@H]3N=C(c4ccc(Cl)cc4)c4c(sc(C)c4C)-n4c(C)nnc43)no2)C(C)C)cc1 [Example 120] | 0.1 to 1 | 79.5
Cc1ncsc1-c1ccc([C@H](C)NC(=O)[C@@H]2C[C@@H](O)CN2C(=O)[C@@H](NC(=O)COc2ccnc(N3CCN(C(=O)C[C@@H]4N=C(c5ccc(Cl)cc5)c5c(sc(C)c5C)-n5c(C)nnc54)CC3)n2)C(C)(C)C)cc1 [Example 330] | 0.01 to 0.1 | 89
Cc1ncsc1-c1ccc([C@H](C)NC(=O)[C@H]2C[C@H](O)CN2C(=O)[C@@H](NC(=O)CN2CCC(O[C@H]3C[C@H](NC(=O)C[C@@H]4N=C(c5ccc(Cl)cc5)c5c(sc(C)c5C)-n5c(C)nnc54)C3)CC2)C(C)(C)C)cc1 [Example 345] | > 1 | < 5
Cc1ncsc1-c1ccc([C@H](C)NC(=O)[C@H]2C[C@@H](O)CN2C(=O)[C@@H](NC(=O)CN2CCC(O[C@H]3C[C@H](NC(=O)C[C@@H]4N=C(c5ccc(Cl)cc5)c5c(sc(C)c5C)-n5c(C)nnc54)C3)CC2)C(C)(C)C)cc1 [Example 347] | > 1 | < 5

The next lines start with results.

DC50 [µM] | Structure (SMILES) | Emax [%]
< 0.01 | Cc1ncsc1-c1ccc([C@H](C)NC(=O)[C@@H]2C[C@@H](O)CN2C(=O)[C@@H](NC(=O)c2ccc(OCCCNC(=O)C[C@@H]3N=C(c4ccc(Cl)cc4)c4c(sc(C)c4C)-n4c(C)nnc43)cc2)C(C)(C)C)cc1 [Example 132, (2S,4R)-1-[(2S)-2-{[4-(3-{2-[(9S)-7-(4-chlorophenyl)-4,5,13-trimethyl-3-thia-1,8,11,12-tetraazatricyclo[8.3.0.0^2,^6]trideca-2(6),4,7,10,12-pentaen-9-yl]acetamido}propoxy)phenyl]formamido}-3,3-dimethylbutanoyl]-4-hydroxy-N-[(1S)-1-[4-(4-methyl-1,3-thiazol-5-yl)phenyl]ethyl]pyrrolidine-2-carboxamide] | 99
< 0.01 | Cc1ncsc1-c1ccc(CNC(=O)[C@@H]2C[C@@H](O)CN2C(=O)[C@@H](c2cc(OCCN3CC[C@@H](NC(=O)C[C@@H]4N=C(c5ccc(Cl)cc5)c5c(sc(C)c5C)-n5c(C)nnc54)C3)no2)C(C)C)cc1 (single isomer, unassigned) [Example 312] | 87.5
< 0.01 | Cc1ncoc1-c1ccc([C@H](C)NC(=O)[C@@H]2C[C@@H](O)CN2C(=O)[C@@H](NC(=O)Cc2ccc(O[C@H]3C[C@H](NC(=O)C[C@@H]4N=C(c5ccc(Cl)cc5)c5c(sc(C)c5C)-n5c(C)nnc54)C3)cc2)C(C)(C)C)cc1 [Example 274] | 95.4
< 0.01 | Cc1ncsc1-c1ccc([C@H](C)NC(=O)[C@@H]2C[C@@H](O)CN2C(=O)[C@@H](NC(=O)/C=C/c2cc(F)cc(O[C@@H](C)CNC(=O)C[C@@H]3N=C(c4ccc(Cl)cc4)c4c(sc(C)c4C)-n4c(C)nnc43)c2)C(C)(C)C)cc1 [Example 201] | 94.1
< 0.01 | Cc1ncsc1-c1ccc([C@H](C)NC(=O)[C@@H]2C[C@@H](O)CN2C(=O)C(C(C)C)n2cc(-c3cccc(OCCNC(=O)C[C@@H]4N=C(c5ccc(Cl)cc5)c5c(sc(C)c5C)-n5c(C)nnc54)c3)cn2)cc1 (stereo partly shown) [Example 222] | 100
< 0.01 | Cc1ncsc1-c1ccc([C@H](C)NC(=O)[C@@H]2C[C@@H](O)CN2C(=O)[C@@H](NC(=O)COc2cc(F)cc(O[C@H]3C[C@H](NC(=O)C[C@@H]4N=C(c5ccc(Cl)cc5)c5c(sc(C)c5C)-n5c(C)nnc54)C3)c2)C(C)(C)C)cc1 [Example 215] | 98
< 0.01 | Cc1ncsc1-c1ccc([C@H](C)NC(=O)[C@@H]2C[C@@H](O)CN2C(=O)[C@@H](NC(=O)/C=C/c2cc(F)cc(OC(C)CNC(=O)C[C@@H]3N=C(c4ccc(Cl)cc4)c4c(sc(C)c4C)-n4c(C)nnc43)c2)C(C)(C)C)cc1 (stereo partly shown) [Example 188] | 95.4

Source: patent publication US11554171B2, “Compounds and methods for the targeted degradation of bromodomain-containing proteins” (Arvinas Operations, Inc., priority 2015, dated 2023)
